Data reported in US20230302014A1, “USES OF GLUCOCORTICOID RECEPTOR (GR) ANTAGONIST AND ANDROGEN RECEPTOR (AR) DEGRADER COMBINATIONS” (ORIC Pharmaceuticals, Inc., priority 2020, published 2023).

How the values were obtained:
Assay type in all cases: cell-based, Human
CWR22PC cells = assay: Cell growth (cell number) of prostate cancer cells under long-term treatment; conditions: CWR22PC; CSS media; 21 days; 0.1 nM R1881 + 1 µM ARV-110, + 30 nM dexamethasone, + 0.5 µM compound 1
Procedure: (§1) CWR22PC cells were seeded at a density of 2 × 10^5 cells/well in 6-well plates (Corning# 3516) in 2 mL of RPMI-1640 media supplemented with 10% charcoal-stripped serum (CSS) in duplicate. 24 hours later, cells were treated with 100 pM R1881, 30 nM dexamethasone, 0.5 µM compound 1, 1 µM of ARD1 or ARD2, or combinations thereof as indicated. Fresh media containing the indicated treatment was replaced every 5-7 days. Cell supernatant was collected on Day 12 and 19 and stored at -80° C. for PSA AlphaLISA assay. Cell images were taken on Day 12 and 19 using Leica DMi8 microscope (LEICA MICROSYSTEMS, INC. IL) with a 10X magnification. Cells were then trypsinized and cell numbers in each treatment group were counted three times, average counts were plotted with GraphPad Prism 8. Cell pellets were washed once with 1XPBS and then lysed in 600 µL RLT RNA lysis buffer and stored at -80° C. RNA was extracted for end of study (EOS) biomarker analysis for which the detailed procedures are described in the section RNA Extraction and RT-qPCR analysis.
The impact of ARD1 and ARD2 on the growth of prostate cancer cells was explored. CWR22PC cells were plated in charcoal-stripped serum (CSS) media and treated with vehicle or 0.1 nM R1881 (synthetic AR ligand) without or with 1 µM of ARD1 or ARD2. Media with treatments were replaced every 5-7 days and cells were maintained at 37° C. for 22 days. Supernatant of each group was harvested at day 22 to measure PSA secretion by PSA AlphaLISA assays.
as §1, with “24 hours later, cells were treated with 100 pM R1881, 30 nM dexamethasone, 0.5 µM compound 1, 1 µM of ARD1 or ARD2, or combinations thereof as indicated.” left out, “15” for “12”, “21” for “19”, “assay.” for “assay. Cell images were taken on Day 12 and 19 using Leica DMi8 microscope (LEICA MICROSYSTEMS, INC. IL) with a 10X magnification.”

GR mRNA = assay: RT-qPCR of GR mRNA after time-dependent AR degrader treatment; conditions: 30 nM dexamethasone, up to 15 days
Procedure: 5 million of LNCaP and CWR22PC cells per dish were plated in five 15-cm dishes in 20 mL of RPMI-1640 media supplemented with 10% charcoal-stripped serum (CSS) and cultured at 37° C. for 24 hours. Cells were treated with 30 nM of dexamethasone and with 100 nM of ARD1 or ARD2 and maintained at 37° C. until harvest. On Day 0, 6, 10, 13, and 15, cells were trypsinized, cell pellets were washed with 1XPBS and then divided for mRNA and protein preparation.
(§2) Adherent cells or cell pellets harvested for mRNA analysis were first washed once with PBS and then resuspended in 600 µL of RLT lysis buffer (Qiagen Inc.) supplemented with 1% of betamercaptoethanol. RNA was extracted by QIAcube using the RNeasy Mini QIAcube kit (Qiagen#74116) according to manufacturer’s instructions. The extracted RNA samples were then quantified using a Nanodrop 8000 Spectrophotometer. RT-qPCR reactions were set up in triplicate using 3 µL of 3 ng/ µL of RNA in 7 µL of pre-mixed SensiFAST™ SYBR No-ROX One-Step Kit reagents (BIOLINE# BIO-98005). The RT-qPCR reactions were run on a Bio-Rad CFX384 Real-Time PCR System and data was plotted with GraphPad Prism 8 software.
2 million of LNCaP and CWR22PC cells per dish were plated in five 10-cm dishes in 10 mL of RPMI-1640 media supplemented with 10% charcoal-stripped serum (CSS) and cultured at 37° C. for 24 hours. […]

[1] = system: GR target genes GILZ, PER1, KLF9, SGK1; assay: RT-qPCR of GR target genes after time-dependent AR degrader treatment; conditions: LNCaP and CWR22PC cells; 100 nM degrader; 30 nM dexamethasone; 0, 6, 10, 13, 15 days
Procedure: as §2

[2] = system: AR and GR target genes in CWR22PC cells; assay: End of study (EOS) biomarker analysis by RT-qPCR; conditions: CSS media, day 21 EOS, 0.1 nM R1881 + 1 µM ARV-110, + 30 nM dexamethasone, + 0.5 µM compound 1
Procedure: as §1, §2
CWR22PC cells were seeded at a density of 2 × 10^5 cells/well in 6-well plates (Corning# 3516) in 2 mL of RPMI-1640 media supplemented with 10% charcoal-stripped serum (CSS) in duplicate. […] Cells were then trypsinized and cell numbers in each treatment group were counted three times, average counts were plotted with GraphPad Prism 8. […]

## N#Cc1ccc(O[C@H]2CC[C@H](NC(=O)c3ccc(N4CCC(CN5CCN(c6cc7c(cc6F)C(=O)N(C6CCC(=O)NC6=O)C7=O)CC5)CC4)nn3)CC2)cc1Cl (stereo partly drawn) [ARV-110, N-[trans-4-(3-chloro-4-cyanophenoxy)cyclohexyl]-6-[4-[[4-[2-(2,6-dioxo-3-piperidinyl)-6-fluoro-2,3-dihydro-1,3-dioxo-1H-isoindol-5-yl]-1-piperazinyl]methyl]-1-piperidinyl]-3-pyridazinecarboxamide]
CWR22PC cells
  R1881-induced cell growth: blunts
GR mRNA; CWR22PC cells (moderate GR pre-treatment), 100 nM degrader
  GR transcript levels: minimal
GR mRNA; GR-negative LNCaP cells, 100 nM ARV-110
  upregulation of GR mRNA levels: ~ 7 fold
[1]
  expression of GR target genes including GILZ, PER1, KLF9, and SGK1: most of the GR target genes are upregulated in a time dependent manner
[2]
  R1881-induced target gene (biomarker) expression: blunts
